# Measurements reported in patent EP1002054B1, “PROCESS FOR THE PRODUCTION OF VIRUS IN CELL CULTURES” (priority 1998, dated 1999).
# *1 amine or outer side, *2 acyl side, *3 side chain or, on linkers, in order; H or OH if unused. Where a SMILES comes first, the peptide text is derived from it. Bridges are numbered along the chain shown (N, C = ends). Roman numbers before positions name the chains, in order. [ ]: non-standard residue; d: D form. Actinocin(9to1) = Cc1c2oc3c(C)ccc(C(=O)[*:1])c3nc-2c(C(=O)[*:2])c(N)c1=O; NMeV = CN[C@H](C(=O)O)C(C)C; Sar = CNCC(=O)O
# Columns and labels:
# [1] = tested on: interferon response; settings: pretreatment of the cells; cited from earlier work
# [2] = tested on: interferon response
structure (smiles),measurement,setting,value
"Cc1c2oc3c(C)ccc(C(=O)N[C@@H]4C(=O)N[C@H](C(C)C)C(=O)N5CCC[C@H]5C(=O)N(C)CC(=O)N(C)[C@@H](C(C)C)C(=O)O[C@@H]4C)c3nc-2c(C(=O)N[C@@H]2C(=O)N[C@H](C(C)C)C(=O)N3CCC[C@H]3C(=O)N(C)CC(=O)N(C)[C@@H](C(C)C)C(=O)O[C@@H]2C)c(N)c1=O [actinomycin D] (I: T[dV]P[Sar][NMeV] / II: T[dV]P[Sar][NMeV]; ester I:1-I:C, II:1-II:C; linker I:N-II:N via Actinocin(9to1))",effect on interferon response,[1],blocks the interferon response
same,effect on virus yield relative to control cultures,[2],substantial increase in virus yield
same,toxicity to the cells,[2],relatively toxic to the cells
